How the values were obtained:
[1] = tested on: p53^tsneo transfected DP16-1 cells; experiment: Viability of p53^tsneo transfectants in media containing 1.6% DMSO; format: cell-based, mouse; settings: 37.5° C., logarithmically growing transfectants
Method: DP16-1 MEL cells were grown in Dulbecco modified minimal essential medium (DMEM) supplemented with 10% calf serum, 2 mM glutamine, 100 U of penicillin per ml, and 100 μg of […] per ml. DNA transfections were performed by electroporation (Prochownik et al., supra). Transfection mixes consisted of 1×10^7 cells in 400 μl transfection buffer (272 mM sucrose, 7 mM phosphate (pH 7.4), 1 mM MgCl2) with either 10 μg p53^tsneo, or 10 μg pSV-2neo, linearized with Bam HI. Transfected cells were selected in media containing 1 mg/ml geneticin (G418; GIBCO). Single-cell clones were isolated by limiting cell dilution in 96-well microtiter plates. To characterize the consequences of enforced expression of p53 on differentiation, logarithmically growing transfectants were exposed to media containing 1.6% dimethyl sulfoxide (DMSO) and incubated at 37.5° C. Media was changed every other day. Cells underwent growth arrest and subsequently died over a period of 48-96 hours (FIG. 8A; DP16-1 cells, ______, p53^tsneo transfected DP16-1 cells, - - -, and DP16-1 cells co-transfected with c-myb and p53^tsneo, _._._). Viable cells were isolated by centrifugation through Ficoll-paque (Pharmacia). […] This is in contrast to untransfected control DP16-1 cells which, when grown in media containing DMSO, downregulate c-myb mRNA and differentiate while remaining viable (FIG. 8A & 8B). […]

p53^tsneo clones = experiment: DMSO-induced differentiation of p53^tsneo clones, benzidine staining; format: cell-based, mouse; settings: 5 days exposure to 1.6% DMSO at 37.5° C., viable cells isolated through Ficoll-paque
Method: To characterize the consequences of enforced expression of p53 on differentiation, logarithmically growing transfectants were exposed to media containing 1.6% dimethyl sulfoxide (DMSO) and incubated at 37.5° C. Media was changed every other day. Cells underwent growth arrest and subsequently died over a period of 48-96 hours (FIG. 8A; DP16-1 cells, ______, p53^tsneo transfected DP16-1 cells, - - -, and DP16-1 cells co-transfected with c-myb and p53^tsneo, _._._). Viable cells were isolated by centrifugation through Ficoll-paque (Pharmacia). […] This is in contrast to untransfected control DP16-1 cells which, when grown in media containing DMSO, downregulate c-myb mRNA and differentiate while remaining viable (FIG. 8A & 8B). As expected, the p53^ts protein was located in the cytoplasm of the cells growing at 37.5° C. in the absence of DMSO (FIG. 9A, panel a; C4 p53^tsneo DP16-1 cells). […] Thus despite the fact that the cells were grown at 37.5° C., DMSO caused the p53^ts to behave as wild-type p53 tumor suppressor and induced apoptotic cell death. MEL cells can also exit the cell cycle by being stimulated to terminally differentiate. DMSO was used to induce differentiation of p53^tsneo clones at 37.5° C. After 5 days exposure to 1.6% DMSO, viable cells were isolated by centrifugation through Ficoll-paque. […] These cells were placed at 32.5° C. and viability monitored. […]

[2] = tested on: p53^tsneo/pMbm1-dhfr co-transfectants (DP16-1 MEL cells); experiment: Viability of amplified p53^tsneo/pMbm1-dhfr co-transfectants in 1.6% DMSO; format: cell-based, mouse; settings: amplified c-myb cultures
Description: To determine how c-myb and p53 interact during MEL cell growth and differentiation, DP16-1 cells were co-transfected with p53^tsneo and pMbm1-dhfr, which encodes a full-length c-myb cDNA under the control of an SV40 promoter (Clarke, et al., supra). […] (FIG. 9A; panel c, C5a p53^tsneo/c-myb transfected DP16-1 cells; panel d, C5a cells). Instead, these cells proliferated for 2-3 days, and then arrested coincident with an increase in benzidine-positive cells (FIG. 11). Viability decreased only after the majority of cells had differentiated. Increased expression of c-myb was selected for by growing transfected cells in higher concentrations of methotrexate (Clarke et al., supra).

parental DP16-1 cells = experiment: DMSO-induced differentiation of parental DP16-1 cells, benzidine staining; format: cell-based, mouse; settings: two days of exposure to medium containing DMSO
Description: (§1) MEL cell lines invariability contain mutations of the p53 tumor suppressor gene and express either negligible or mutant p53 protein. During MEL differentiation there is a biphasic decline in expression of the c-myc oncogene although enforced expression of c-myc blocks this differentiation. To determine the relationship between mutant p53 and c-myc in cell differentiation, DP16-1 cells (which have deleted both p53 alleles) were transfected with an amplifiable plasmid vector containing a full-length mouse c-myc cDNA with or without plasmid vector containing a mutant p53 cDNA (p53^pro193). The exogenous c-myc cDNA is transcribed in MEL cells and results in increased expression of c-myc mRNA and protein during DMSO-induced differentiation. Extent of differentiation was monitored by benzidine staining (FIGS. 17A and 17B). When MEL cells are exposed to DMSO, differentiation normally occurs over a five day period. In contrast to the parental DP16-1 cells or DP16-1 cells transfected with pSV2LZquad, c-myc transfected DP16-1 cells or underwent accelerated differentiation. […] Furthermore, c-myc transfected DP16-1 cells stopped growing and eventually lost viability when grown in medium containing 1.6% DMSO. Coincident expression of p53^pro193 with c-myc abolished the accelerated DMSO-induced differentiation seen in cells which expressed c-myc alone.

[3] = tested on: c-myc transfected DP16-1 cells; experiment: DMSO-induced differentiation of c-myc transfected DP16-1 cells, benzidine staining; format: cell-based, mouse; settings: two days of exposure to medium containing DMSO
Description: as §1

[4] = tested on: clones C9, C2 and C1 (p53^tsneo transfected DP16-1 MEL cells); experiment: Viability of G1-arrested p53tsneo clones (mimosine growth arrest); format: cell-based; settings: mouse, 36 h, 300 μM
Method: (§2) The relationship of p53 induced cell death to the cell cycle was studied in transfected clone C9. Clone C9 cells were synchronized in G0/G1 by density arrest (typically at a concentration of 1-2×10^6 cells/ml) for 48-72 hours at 37.5° C. Cells were stimulated to begin cycling by replating into fresh media at a 1:10 split ratio. Growth arrest with mimosine (Sigma) was accomplished by the addition of 300 μM mimosine to logarithmically growing cells for a period of 24 hours.
(§3) To rule out that G1 arrest alone induces cell death, clones C9, C2 and C1 were growth arrested with either mimosine (300 μM) (Watson et al., Cytometry 12:242 (1991)) or isoleucine deprivation (Heintz et al., Proc. Natl. Acad. Sci. USA 79:4083 (1982)) at 37.5° C., both of which result in late Gi arrest.

[5] = as above; format: cell-based; settings: mouse, clones C9, C2 and C1 (p53tsneo transfected DP16-1 MEL cells); mimosine 300 μM, late G1 arrest at 37.5° C., after 3-4 days of arrest
Method: as §2, §3

[6] = tested on: CML cells in bone marrow cell culture; experiment: Purging CML cells from low density mononuclear bone marrow cells with antisense myb; format: cell-based; settings: 40 μg/ml, culture changed two times a day for 1-to-three days, after MIP-1α 300 μg/ml for 24 hours
Description: The most successful purging of bone marrow cells includes from one-to-three non-overlapping techniques. CML cells display antigens which are not present on the hematopoietic stem cells. A large majority of the CML cells that contaminant Marrow samples can initially be removed using antibodies that recognize these CML-specific antigens. Antibodies that can be used include specificities directed to one or more of the following antigens: CD15, CD33, Glycophorin A, CD10, CD2, CD4 and CD8. Antibody-cell conjugates can be removed by either flow cytometry, immuno-magnetic beads or compliment, for example. The remaining CML cells can be killed by incubating the enriched culture in the presence of c-myb antisense oligonucleotides.
Briefly, mononuclear cells will be isolated from a 5 ml bone marrow aspirate by centrifuging through a ficol-hypaque density gradient. The isolated bone marrow cells (1×10^5 CD34+ progenitor cells) are then cultured in Dexter medium with IL3, SGF and EPO and macrophage inflammatory factor (MIP-1α; 300 μg/ml) for 24 hours and then are cultured in medium containing c-myb antisense oligonucleotides. MIP-1α arrests normal hematopoietic cells in G0 and these cells will therefore be resistant to c-myb antisense. The CML cells, however, are unresponsive to MIP-1α and will continue to cycle. […]

For C[S+](C)[O-] [DMSO, dimethyl sulfoxide], the “Period over which cells died after growth arrest” value [1] was 48 to 96 h, the Benzidine positivity (p53^tsneo clones) was 70-80% and the “Time to loss of viability” value [2] was 10 to 14 days. The Differentiation (parental DP16-1 cells) was “remained largely undifferentiated” and the Cells differentiated [3] was 70-80%.
With NC(Cn1ccc(=O)c(O)c1)C(=O)O (centres unmarked) [mimosine] the Viability [4] was “less than 5%” and the viability at 300 μM [5] was roughly 70%.
For “c-myb antisense: c-myb antisense oligonucleotide 5′-GTGCCGGGGTCTTCGGGC-3′ (chemistry not given here)”, the “Cells remaining viable in culture” value [6] was “only the normal hematopoietic cells”.
